Laboratory results as given in patent publication US8956555B2, “Silylethynyl pentacene compounds and compositions and methods of making and using the same” (3M Innovative Properties Company, priority 2008, dated 2015).

Test: Solubility in organic solvent (toluene)
Format: physicochemical

**Q.** For `C=CC[Si](C#Cc1c2cc3ccccc3cc2c(C#C[Si](CC=C)(C(C)C)C(C)C)c2cc3ccccc3cc12)(C(C)C)C(C)C` [Compound I, 6,13-bis(allyldiisopropylsilylethynyl)pentacene], which solubility in toluene is on record?
**A.** greater than 21 wt %
